Assay results from the NIST ThermoML archive (doi:10.1016/j.tca.2015.02.020).
± gives the expanded uncertainty stated by the source.

Test: molar heat capacity at constant pressure; xn = mol fraction of the nth substance listed
Settings: 101 kPa, Small sample (50 mg) DSC

NCCO [2-aminoethan-1-ol] + O
Settings | molar heat capacity at constant pressure [J/K/mol]
125.88 K, Glass, x1 = 0.19 | 25.67 ± 5.2
126.5 K, Glass, x1 = 0.31 | 30.11 ± 6
126.8 K, Glass, x1 = 0.73 | 44.51 ± 8.9
126.93 K, Glass, x1 = 0.73 | 46.98 ± 2
127.09 K, Glass, x1 = 0.23 | 27.92 ± 1.1
127.56 K, Glass, x1 = 0.19 | 25.67 ± 1
127.58 K, Glass, x1 = 0.23 | 28.2 ± 5.6
128.65 K, Glass, x1 = 0.31 | 31.05 ± 1.3
130.53 K, Glass, x1 = 0.19 | 28.03 ± 5.5
131.15 K, Glass, x1 = 0.31 | 31.68 ± 6.3
131.46 K, Glass, x1 = 0.73 | 45.5 ± 8.9
131.76 K, Glass, x1 = 0.73 | 48.96 ± 2
131.91 K, Glass, x1 = 0.31 | 31.68 ± 1.3
131.92 K, Glass, x1 = 0.23 | 29.6 ± 1.4
132.24 K, Glass, x1 = 0.23 | 29.6 ± 5.9
132.38 K, Glass, x1 = 0.19 | 26.72 ± 1
135.04 K, Glass, x1 = 0.73 | 49.95 ± 2
135.19 K, Glass, x1 = 0.31 | 32.62 ± 1.3
135.2 K, Glass, x1 = 0.19 | 30.13 ± 6
135.2 K, Glass, x1 = 0.23 | 30.71 ± 1.4
135.66 K, Glass, x1 = 0.19 | 27.77 ± 1.3
136.91 K, Glass, x1 = 0.23 | 31.55 ± 6.4
136.92 K, Glass, x1 = 0.31 | 33.88 ± 6.9
137.23 K, Glass, x1 = 0.73 | 46.98 ± 9.4
139.88 K, Glass, x1 = 0.19 | 33.27 ± 6.8
141.59 K, Glass, x1 = 0.23 | 34.34 ± 7
141.59 K, Glass, x1 = 0.31 | 36.07 ± 7.2
141.6 K, Glass, x1 = 0.73 | 52.42 ± 2.5
141.75 K, Glass, x1 = 0.23 | 32.67 ± 1.4
141.75 K, Glass, x1 = 0.31 | 34.19 ± 1.6
141.91 K, Glass, x1 = 0.73 | 47.97 ± 9.4
142.22 K, Glass, x1 = 0.19 | 29.34 ± 1.3
144.56 K, Glass, x1 = 0.19 | 38.25 ± 7.6
144.88 K, Glass, x1 = 0.73 | 53.91 ± 2.5
145.03 K, Glass, x1 = 0.31 | 35.13 ± 1.6
145.04 K, Glass, x1 = 0.23 | 34.06 ± 1.4
145.51 K, Glass, x1 = 0.19 | 30.91 ± 1.3
146.28 K, Glass, x1 = 0.23 | 39.37 ± 7.8
146.28 K, Glass, x1 = 0.31 | 40.15 ± 8.2
146.6 K, Glass, x1 = 0.73 | 49.95 ± 9.9
151.3 K, Glass, x1 = 0.73 | 52.92 ± 10
151.46 K, Glass, x1 = 0.73 | 56.38 ± 2.5
151.61 K, Glass, x1 = 0.31 | 39.21 ± 1.6
154.75 K, Glass, x1 = 0.73 | 57.86 ± 2.5
158.65 K, Liquid, x1 = 0.19 | 63.66 ± 13
160.38 K, Liquid, x1 = 0.23 | 65.61 ± 13
161.96 K, Liquid, x1 = 0.19 | 60.52 ± 2.6
163.35 K, Liquid, x1 = 0.19 | 64.19 ± 13
164.78 K, Liquid, x1 = 0.31 | 75.91 ± 3.1
165.07 K, Liquid, x1 = 0.23 | 65.61 ± 13
165.08 K, Liquid, x1 = 0.31 | 73.71 ± 15
165.25 K, Liquid, x1 = 0.19 | 60.78 ± 2.6
168.06 K, Liquid, x1 = 0.19 | 64.45 ± 13
169.79 K, Liquid, x1 = 0.23 | 65.61 ± 13
169.79 K, Liquid, x1 = 0.31 | 73.4 ± 15
170.12 K, Liquid, x1 = 0.73 | 109.3 ± 22
171.22 K, Liquid, x1 = 0.73 | 122.65 ± 5.4
171.38 K, Liquid, x1 = 0.23 | 68.96 ± 2.8
171.38 K, Liquid, x1 = 0.31 | 75.59 ± 3.1
171.85 K, Liquid, x1 = 0.19 | 61.57 ± 2.6
172.77 K, Liquid, x1 = 0.19 | 64.97 ± 13
174.5 K, Liquid, x1 = 0.23 | 65.61 ± 13
174.5 K, Liquid, x1 = 0.31 | 73.4 ± 15
174.52 K, Liquid, x1 = 0.73 | 121.66 ± 4.9
174.68 K, Liquid, x1 = 0.23 | 69.52 ± 3.1
174.68 K, Liquid, x1 = 0.31 | 75.59 ± 3.1
174.83 K, Liquid, x1 = 0.73 | 109.3 ± 22
175.15 K, Liquid, x1 = 0.19 | 61.83 ± 2.6
177.48 K, Liquid, x1 = 0.19 | 65.23 ± 13
179.21 K, Liquid, x1 = 0.23 | 65.89 ± 13
179.21 K, Liquid, x1 = 0.31 | 73.4 ± 15
179.55 K, Liquid, x1 = 0.73 | 109.79 ± 22
181.12 K, Liquid, x1 = 0.73 | 122.15 ± 4.9
181.28 K, Liquid, x1 = 0.23 | 70.36 ± 3.1
181.28 K, Liquid, x1 = 0.31 | 76.22 ± 3.1
181.75 K, Liquid, x1 = 0.19 | 62.35 ± 2.6
182.19 K, Liquid, x1 = 0.19 | 66.02 ± 13
183.93 K, Liquid, x1 = 0.23 | 66.17 ± 13
183.93 K, Liquid, x1 = 0.31 | 73.71 ± 15
184.27 K, Liquid, x1 = 0.73 | 109.79 ± 22
184.43 K, Liquid, x1 = 0.73 | 122.15 ± 4.9
184.58 K, Liquid, x1 = 0.31 | 76.22 ± 3.1
184.59 K, Liquid, x1 = 0.23 | 70.64 ± 3.1
186.92 K, Liquid, x1 = 0.19 | 66.54 ± 13
188.65 K, Liquid, x1 = 0.23 | 66.73 ± 13
188.65 K, Liquid, x1 = 0.31 | 74.02 ± 15
188.98 K, Liquid, x1 = 0.73 | 110.28 ± 22
191.04 K, Liquid, x1 = 0.73 | 120.18 ± 4.9
191.19 K, Liquid, x1 = 0.31 | 77.16 ± 3.1
191.2 K, Liquid, x1 = 0.23 | 71.48 ± 3.1
191.64 K, Liquid, x1 = 0.19 | 67.07 ± 13
193.38 K, Liquid, x1 = 0.23 | 67.57 ± 14
193.38 K, Liquid, x1 = 0.31 | 74.65 ± 15
193.72 K, Liquid, x1 = 0.73 | 111.27 ± 22
194.5 K, Liquid, x1 = 0.31 | 77.47 ± 3.1
194.51 K, Liquid, x1 = 0.23 | 72.04 ± 3.1
196.37 K, Liquid, x1 = 0.19 | 67.85 ± 14
198.1 K, Liquid, x1 = 0.23 | 68.13 ± 14
198.1 K, Liquid, x1 = 0.31 | 74.97 ± 15
198.44 K, Liquid, x1 = 0.73 | 112.26 ± 23
201.09 K, Liquid, x1 = 0.19 | 68.9 ± 14
201.13 K, Liquid, x1 = 0.23 | 72.59 ± 3.1
201.13 K, Liquid, x1 = 0.31 | 78.73 ± 3.5
202.83 K, Liquid, x1 = 0.23 | 68.96 ± 14
202.84 K, Liquid, x1 = 0.31 | 75.28 ± 15
203.18 K, Liquid, x1 = 0.73 | 112.76 ± 23
204.44 K, Liquid, x1 = 0.23 | 72.87 ± 3.1
204.44 K, Liquid, x1 = 0.31 | 79.36 ± 3.5
205.82 K, Liquid, x1 = 0.19 | 69.95 ± 14
207.56 K, Liquid, x1 = 0.23 | 69.8 ± 14
207.56 K, Liquid, x1 = 0.31 | 76.22 ± 15
